Laboratory results as given in patent US9987329B2, “Methods for treating peripheral nerve damage” (Cornell University, priority 2014, dated 2018).

What was measured:
[1] = tested on: trigeminal ganglion (TG) neuronal cells; assay: Inhibition of VEGF-B induced neurite growth in TG neurons; format: cell-based, mouse; details: 3 days
Protocol: (§1) Trigeminal ganglion (TG) neuronal cells were obtained and cultured as described previously. Pan, Z., Fukuoka et al., FASEB J. 27, 2756-2767 (2013). To evaluate the effect of VEGF-B on neuronal growth, TG neuronal cells were treated with 10-100 ng/ml recombinant mouse VEGF-B^186 (R&D 767-VE-010). The VEGF-B treatments were replenished every other day. Neurite formation and growth was followed up to 3 days. […] VEGF receptors were inhibited by using neutralizing antibodies against VEGFR1 (R&D AF471), VEGFR2 (R&D MAB4431) and Neuropilin 1 (NRP1) (R&D MAB566). TG cells were incubated in a dose dependent manner with anti-VEGFR1, anti-VEGFR2 or anti-NRP1 for 1 hour prior to the addition of 50 ng/ml VEGF-B. The tyrosine kinase domains of VEGFR2 were inhibited with specific inhibitors by incubating TG neuronal cells with 10 μM SU 1498 (Sigma T4192) or 5 nM Ki 8751 (Sigma K1265) for 1 hr before adding 50 ng/ml VEGF-B. All neurite growth was imaged with an AxioObserver Z1 fluorescence microscope in the YFP channel attached to an AxioCam HRm digital camera (Zeiss) operated by AxioVision 4.0 software. Images were analyzed using Neurolucida 9 (MBF Bioscience) a quantitative nerve tracing software.

[2] = tested on: Human corneal limbal epithelial (HCLE) cells; assay: In vitro scratch wound assay; format: cell-based; details: 10 ng/ml
Protocol: Human corneal limbal epithelial (HCLE) cells were cultured in 6-well plates until confluency as described. Pan, Z., Fukuoka et al., FASEB J. 27, 2756-2767 (2013). Cells were starved in KSFM medium (gibco 10724-011) without supplements for 24 h. Then a straight-line scratch mark was made in each well with a 200 ul pipette tip. KSFM medium supplemented with VEGF-B^186 (50 ng/ml) or EGF (10 ng/ml, Millipore 01-101) was added to the wells. Scratch areas were imaged at 0, 8, 24 and 48 hours at the same locations using the mark and find module of the Axiovision software and the wound closure analyzed by Photoshop.

[3] = tested on: trigeminal ganglion (TG) neuronal cells; assay: Trigeminal ganglion neuronal growth assay; format: cell-based, mouse; details: 50 ng/ml, three days in culture (FIG. 2A)
Protocol: as §1

[4] = tested on: corneal nerves of Thy-1-YFP mice; assay: Corneal nerve regeneration with combinations of VEGF-A and VEGF-B; format: in vivo, mouse; details: ligand administered separately, two weeks post-injury (FIG. 14)
Protocol: Thy-1-YFP mice were subjected to cornea epithelium debridement to ablate the superficial nerve endings that innervate the cornea Immediately after injury, the mice were treated with different combinations of VEGF-A and VEGF-B. As shown, combinations of VEGF ligands induce greater nerve regeneration in vivo.
The observed effects were also recapitulated in vivo. Thy-1-YFP neurofluorescent mice were used to induce a corneal epithelium injury that results in ablation of the superficial nerve endings of the cornea. The mice were then treated with different combinations of VEGF-A and VEGF-B, and nerve regeneration was analyzed after two weeks post-injury.

COc1cc2nccc(Oc3ccc(NC(=O)Nc4ccc(F)cc4F)c(F)c3)c2cc1OC [Ki 8751]
inhibition of VEGF-B induced neurite growth ([1]; 5 nM, 1 hr before 50 ng/ml VEGF-B): does not block

CC(C)c1cc(/C=C(\C#N)C(=O)NCCCc2ccccc2)cc(C(C)C)c1O [SU 1498]
inhibition of VEGF-B induced neurite growth ([1]; 10 μM, 1 hr before 50 ng/ml VEGF-B): does not block

EGF: epidermal growth factor (Millipore 01-101), a known inducer of epithelial cell proliferation
time of complete confluence of the scratch area [2]: 24 h | time to complete closure of the scratch area [2]: < 24 h | onset of cell growth into the scratch area ([2]; post-treatment): 8 h

B1: soluble VEGFR1: recombinant human-soluble VEGFR1 (sVEGFR1/sFlt1, CellSciences CRF103) (protein)
chain: SKLKDPELSLKGTQHIMQAGQTLHLQCRGEAAHKWSLPEMVSKESERLSITKSACGRNGKQFCSTLTLNTAQANHTGFYSCKYLAVPTSKKKETESAIYIFISDTGRPFVEMYSEIPEIIHMTEGRELVIPCRVTSPNITVTLKKFPLDTLIPDGKRIIWDSRKGFIISNATYKEIGLLTCEATVNGHLYKTNYLTHRQTNTIIDVQISTPRPVKLLRGHTLVLNCTATTPLNTRVQMTWSYPDEKNKRASVRRRIDQSNSHANIFYSVLTIDKMQNKDKGLYTCRVRSGPSFKSVNTSVHIYDKAFITVKHRKQQVLETVAGKRSYRLSMKVKAFPSPEVVWLKDGLPATEKSARYLTRGYSLIIKDVTEEDAGNYTILLSIKQSNVFKNLTATLIVNVKPQIYEKAVSSFPDPALYPLGSRQILTCTAYGIPQPTIKWFWHPCNHNHSEARCDFCSNNEESFILDADSNMGNRIESITQRMAIIEGKNKMASTLVVADSRISGIYICIASNKVGTVGRNISFYITDVPNGFHVNLEKMPTEGEDLKLSCTVNKFLYRDVTWILLRTVNNRTMHYSISKQKMAITKEHSITLNLTIMNVSLQDSGTYACRARNVYTGEEILQKKEITIRGEHCNKKAVFSRISKFKSTRNDCTTQSNVKH
inhibition of VEGF-B induced neurite growth ([1]; equal molar concentration (2.6 nM) with 50 ng/ml VEGF-B): inhibited

B2: VEGF-A: vascular endothelial growth factor A; 232 amino acid protein, NextProt NX_P15692, SEQ ID NO. 2 (protein, listed as Homo sapiens)
chain: MNFLLSWVHWSLALLLYLHVKFMDVYQRSYCHPIETLVDIFQEYPDEIEYIFKPSCVPLMRCGGCCNDEGLECVPTEESNITMQIMRIKPHQGQHIGEMSFLQHNKCECRPKKDRARQEKKSVRGKGKGQKRKRKKSRYKSWSVYVGARCCLMPWSLPGPHPCGPCSERRKHLFVQDPQTCKCSCKNTDSRCKARQLELNERTCRCDKPRRHAKWSQAAPMAEGGGQNHHEV
pattern of neurite growth (elongation and branching) [3]: mainly neurite elongation with few branching nodes | nerve regeneration [4]: induced greater nerve regeneration
